The target in data set [1] is T1, OATP1B3 (Homo sapiens, UniProt Q9NPD5).
T1 sequence (Q9NPD5 1-702): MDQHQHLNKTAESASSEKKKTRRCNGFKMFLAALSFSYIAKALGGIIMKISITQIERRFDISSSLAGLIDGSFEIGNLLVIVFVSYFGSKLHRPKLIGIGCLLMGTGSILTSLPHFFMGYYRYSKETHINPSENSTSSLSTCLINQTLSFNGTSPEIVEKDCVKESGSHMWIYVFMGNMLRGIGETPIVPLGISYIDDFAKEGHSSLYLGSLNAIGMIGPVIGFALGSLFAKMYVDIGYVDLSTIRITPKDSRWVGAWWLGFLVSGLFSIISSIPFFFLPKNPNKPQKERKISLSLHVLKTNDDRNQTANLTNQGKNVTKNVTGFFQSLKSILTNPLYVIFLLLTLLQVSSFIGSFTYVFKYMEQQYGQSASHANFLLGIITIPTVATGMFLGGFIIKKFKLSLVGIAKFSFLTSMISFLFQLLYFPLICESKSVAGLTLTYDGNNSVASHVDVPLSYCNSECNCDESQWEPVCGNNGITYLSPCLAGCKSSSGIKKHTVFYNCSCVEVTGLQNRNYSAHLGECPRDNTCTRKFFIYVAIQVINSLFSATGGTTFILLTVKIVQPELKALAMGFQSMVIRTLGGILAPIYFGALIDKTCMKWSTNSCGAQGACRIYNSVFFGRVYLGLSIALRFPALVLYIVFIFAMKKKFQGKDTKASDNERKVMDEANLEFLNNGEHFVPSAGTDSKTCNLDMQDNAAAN

Data set [2] addresses T2, OATP2B1 (Homo sapiens, UniProt O94956).
T2 sequence (O94956 1-709): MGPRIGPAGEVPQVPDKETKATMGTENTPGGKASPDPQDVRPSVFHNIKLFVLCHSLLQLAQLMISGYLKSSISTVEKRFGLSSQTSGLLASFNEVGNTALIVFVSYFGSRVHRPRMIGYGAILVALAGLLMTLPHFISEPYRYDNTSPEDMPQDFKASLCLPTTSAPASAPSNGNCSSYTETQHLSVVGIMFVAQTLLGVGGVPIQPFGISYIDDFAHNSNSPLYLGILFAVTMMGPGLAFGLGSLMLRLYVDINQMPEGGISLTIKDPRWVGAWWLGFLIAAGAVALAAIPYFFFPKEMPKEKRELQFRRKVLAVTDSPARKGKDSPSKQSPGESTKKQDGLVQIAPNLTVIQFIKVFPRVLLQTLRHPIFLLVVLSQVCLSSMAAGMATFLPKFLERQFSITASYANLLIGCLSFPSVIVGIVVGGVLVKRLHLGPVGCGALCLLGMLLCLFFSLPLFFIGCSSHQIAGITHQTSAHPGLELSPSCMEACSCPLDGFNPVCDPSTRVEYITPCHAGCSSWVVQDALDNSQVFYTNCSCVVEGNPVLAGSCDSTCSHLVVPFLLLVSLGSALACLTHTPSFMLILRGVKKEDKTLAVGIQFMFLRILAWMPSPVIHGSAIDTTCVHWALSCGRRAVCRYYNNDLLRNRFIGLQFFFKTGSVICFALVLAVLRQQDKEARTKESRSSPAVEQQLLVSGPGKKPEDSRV
The data set is described as follows: Substrate uptake in CHO cells stably expressing OATP2B1. The format is cell-based. As to conditions: 2 μM substrate, five minute accumulation, CHOvector = 1.

Data set [3] deals with T3, OATP1B1 (Homo sapiens, UniProt Q9Y6L6). To be noted: read-out: OATP1B1 Km; literature value; cited from earlier work.
T3 sequence (Q9Y6L6 whole entry): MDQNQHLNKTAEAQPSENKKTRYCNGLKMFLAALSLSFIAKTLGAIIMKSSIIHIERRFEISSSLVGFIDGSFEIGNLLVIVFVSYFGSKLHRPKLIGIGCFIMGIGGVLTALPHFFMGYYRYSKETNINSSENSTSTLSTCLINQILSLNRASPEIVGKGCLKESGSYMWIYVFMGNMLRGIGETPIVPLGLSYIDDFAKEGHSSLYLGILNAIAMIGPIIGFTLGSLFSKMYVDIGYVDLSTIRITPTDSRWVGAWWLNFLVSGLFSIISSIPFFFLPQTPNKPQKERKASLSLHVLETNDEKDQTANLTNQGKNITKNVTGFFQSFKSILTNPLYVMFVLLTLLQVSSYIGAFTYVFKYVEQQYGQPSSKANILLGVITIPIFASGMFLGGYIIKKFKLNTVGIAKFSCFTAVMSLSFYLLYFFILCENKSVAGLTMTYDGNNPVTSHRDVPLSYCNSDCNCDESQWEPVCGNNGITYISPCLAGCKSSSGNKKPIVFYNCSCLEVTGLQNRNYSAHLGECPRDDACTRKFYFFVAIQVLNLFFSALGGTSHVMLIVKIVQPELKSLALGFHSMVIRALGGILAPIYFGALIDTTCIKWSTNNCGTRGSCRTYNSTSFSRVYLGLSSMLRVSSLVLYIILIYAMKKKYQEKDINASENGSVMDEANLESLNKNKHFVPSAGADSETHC
The target in data set [4] is T1, OATP1B3. To be noted: read-out: OATP1B3 Km; literature value; cited from earlier work.
Data set [5] deals with T1, OATP1B3. The data set is described as follows: Cellular accumulation in CHO cells transiently transfected with OATP1B3. As to conditions: 2 μM substrate (figure 2 legend), transiently transfected CHO cells.
The target in data set [6] is T3, OATP1B1.
Data set [7] deals with T1, OATP1B3. The data set is described as follows: Substrate uptake and transport kinetics in CHO cells stably expressing OATP1B3. As to conditions: 2 μM substrate, five minute accumulation, CHOvector = 1.
Data set [8] addresses T4, OCT1 (Homo sapiens, UniProt O15245).
T4 sequence (O15245 1-554): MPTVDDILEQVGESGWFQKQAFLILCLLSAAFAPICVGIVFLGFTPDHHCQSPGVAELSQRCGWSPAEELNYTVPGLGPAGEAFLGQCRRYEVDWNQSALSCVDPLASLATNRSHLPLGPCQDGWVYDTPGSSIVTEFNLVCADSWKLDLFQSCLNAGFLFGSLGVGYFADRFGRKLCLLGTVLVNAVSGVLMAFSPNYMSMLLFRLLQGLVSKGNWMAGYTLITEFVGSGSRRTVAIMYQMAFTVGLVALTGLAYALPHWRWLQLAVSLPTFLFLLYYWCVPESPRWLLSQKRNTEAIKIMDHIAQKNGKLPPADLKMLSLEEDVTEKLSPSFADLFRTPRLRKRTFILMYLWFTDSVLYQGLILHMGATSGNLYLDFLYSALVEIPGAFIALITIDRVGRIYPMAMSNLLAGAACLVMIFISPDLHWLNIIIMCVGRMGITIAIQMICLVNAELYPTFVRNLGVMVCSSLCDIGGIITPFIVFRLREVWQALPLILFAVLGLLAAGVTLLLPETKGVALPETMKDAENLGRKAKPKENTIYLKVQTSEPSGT
The data set is described as follows: Cellular accumulation in CHO cells transiently transfected with OCT1. As to conditions: 10 μM substrate, transiently transfected CHO cells. Type of data set: cell-based.

Data set [9] has as its target T5, OCT2 (Homo sapiens, UniProt O15244).
T5 sequence (O15244 1-555): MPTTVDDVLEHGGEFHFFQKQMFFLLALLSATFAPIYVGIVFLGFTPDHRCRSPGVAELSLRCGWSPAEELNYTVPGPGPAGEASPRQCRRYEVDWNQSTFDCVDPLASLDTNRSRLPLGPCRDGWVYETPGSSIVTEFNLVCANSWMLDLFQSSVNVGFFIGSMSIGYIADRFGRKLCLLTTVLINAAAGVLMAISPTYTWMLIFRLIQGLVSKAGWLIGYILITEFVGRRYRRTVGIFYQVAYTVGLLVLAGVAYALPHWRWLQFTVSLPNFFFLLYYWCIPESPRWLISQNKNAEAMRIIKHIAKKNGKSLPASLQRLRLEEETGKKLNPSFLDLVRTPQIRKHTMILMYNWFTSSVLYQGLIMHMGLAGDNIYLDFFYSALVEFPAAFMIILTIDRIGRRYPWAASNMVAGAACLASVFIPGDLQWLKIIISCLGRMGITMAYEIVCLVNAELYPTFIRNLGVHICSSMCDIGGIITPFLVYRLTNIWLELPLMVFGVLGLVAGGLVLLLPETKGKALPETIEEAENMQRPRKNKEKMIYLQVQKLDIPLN
The data set is described as follows: Cellular accumulation in CHO cells transiently transfected with OCT2. The format is cell-based. To be noted: 10 μM substrate, transiently transfected CHO cells.

The target of data set [10] is T6, OAT3 (Homo sapiens, UniProt Q8TCC7).
T6 sequence (Q8TCC7 1-542): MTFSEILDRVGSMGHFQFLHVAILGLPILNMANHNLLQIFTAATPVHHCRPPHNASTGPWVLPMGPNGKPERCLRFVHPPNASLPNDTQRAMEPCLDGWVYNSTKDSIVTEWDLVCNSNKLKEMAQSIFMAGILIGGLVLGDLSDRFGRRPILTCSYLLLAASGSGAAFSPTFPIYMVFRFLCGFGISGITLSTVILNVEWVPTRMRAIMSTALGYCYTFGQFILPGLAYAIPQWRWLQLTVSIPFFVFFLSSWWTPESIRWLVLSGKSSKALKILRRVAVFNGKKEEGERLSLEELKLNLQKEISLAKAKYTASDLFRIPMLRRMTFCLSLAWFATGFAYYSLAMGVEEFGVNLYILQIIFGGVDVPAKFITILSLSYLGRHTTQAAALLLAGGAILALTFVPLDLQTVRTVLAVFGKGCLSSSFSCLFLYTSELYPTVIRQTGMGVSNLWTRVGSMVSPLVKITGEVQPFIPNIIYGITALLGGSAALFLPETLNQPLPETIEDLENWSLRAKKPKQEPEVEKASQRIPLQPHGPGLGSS
Type of data set: cell-based. As to conditions: 2 μM substrate, transiently transfected CHO cells.

The target of data set [11] is T2, OATP2B1. Nature of the data set: Cellular accumulation in CHO cells transiently transfected with OATP2B1. As to conditions: 2 μM substrate, transiently transfected CHO cells. The format is cell-based.
The target in data set [12] is T3, OATP1B1. To be noted: 2 μM substrate, transiently transfected CHO cells.
For data set [13], the target named is T3, OATP1B1. The data set is described as follows: Substrate uptake and transport kinetics in CHO cells stably expressing OATP1B1. To be noted: 2 μM substrate, five minute accumulation, CHOvector = 1.
Data set [14] addresses T7, NTCP (Homo sapiens, UniProt Q14973).
T7 sequence (Q14973 1-349): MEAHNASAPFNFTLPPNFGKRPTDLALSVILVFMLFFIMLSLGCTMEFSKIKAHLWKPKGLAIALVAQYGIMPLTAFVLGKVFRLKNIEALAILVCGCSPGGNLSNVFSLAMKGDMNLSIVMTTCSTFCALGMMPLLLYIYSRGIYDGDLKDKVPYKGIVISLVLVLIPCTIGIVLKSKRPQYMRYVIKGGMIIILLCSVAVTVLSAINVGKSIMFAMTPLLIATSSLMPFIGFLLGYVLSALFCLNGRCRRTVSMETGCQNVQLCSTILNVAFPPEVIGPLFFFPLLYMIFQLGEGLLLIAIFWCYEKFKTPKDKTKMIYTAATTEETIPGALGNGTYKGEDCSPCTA
Nature of the data set: Cellular accumulation in CHO cells transiently transfected with NTCP. Type of data set: cell-based. To be noted: 2 μM substrate, transiently transfected CHO cells.

[15] abbreviates: read-out: OATP1B1 IC50 value, inhibition of OATP1B1-mediated transport of […] 8-FcA, 10 min, mean ± standard error, two experiments.
Where [16] appears, read: read-out: OATP1B3 IC50 value, inhibition of OATP1B3-mediated transport of 1.25 μM 8-FcA, 10 min, mean ± standard error, two experiments.

Each structure is given as a SMILES string. Where two headings read alike, the source gives them in different places.

In the case of `COc1ccc(Cl)cc1C(=O)NCCc1ccc(S(=O)(=O)NC(=O)NC2CCCCC2)cc1` [glibenclamide], half-maximal inhibition in data set [1] (IC50) required 2.69 ± 0.12 µM.
On to `O=C1OC(c2ccc(O)c(S(=O)(=O)O)c2)(c2ccc(O)c(S(=O)(=O)O)c2)c2c(Br)c(Br)c(Br)c(Br)c21` [bromosulfophthalein], for which, in data set [2], the “cellular accumulation relative to control, CHOOATP2B1” value was determined as 6.6 fold. Also, the values for the Michaelis-Menten constant (Km) in data set [3] and in [4] were 0.3 µM and 0.4 µM, respectively. In [5], the “increase in activity versus vector control, OATP1B3” value is on record as 1.26 fold. Moreover, the figures for the IC50 in [6] (setting [15]) and in [1] (setting [16]) were 0.18 ± 0.02 µM and 0.51 ± 0.02 µM, respectively. The “cellular accumulation relative to control, CHOOATP1B3” value in data set [7] came out at 13.8 fold.
On to `C[C@]12CC[C@@H]3c4ccc(O)cc4CC[C@H]3[C@@H]1CC[C@@H]2O[C@@H]1O[C@H](C(=O)O)[C@@H](O)[C@H](O)[C@H]1O` [estradiol-17β-d-glucuronide], for which the figures for the Km in [3] and in data set [4] were 5.4 µM and 15.8 µM, respectively. Further, the IC50 came out at 4.88 ± 0.87 µM in [6] (setting [15]) and 23.5 ± 1.59 µM in [1] (setting [16]).
Turning to `CN(C)C(=N)N=C(N)N` [metformin], the “mean increase in transport over vector control, OCT1” value in data set [8] is 2.4 fold. In addition, the “mean increase in transport over vector control, OCT2” value in [9] is reported as 24.5 fold.
For the compound `NC(Cc1cc(I)c(Oc2cc(I)c(O)c(I)c2)c(I)c1)C(=O)O` (centres unmarked) [thyroxine], in [3], the Michaelis constant (Km) was 3 µM. Moreover, the IC50 in [6] was determined as 3.85 ± 0.88 µM; in data set [1], 2.13 ± 0.17 µM.
For the compound `CO[C@H]1/C=C/O[C@@]2(C)Oc3c(C)c(O)c4c(O)c(c(/C=N/N5CCN(C)CC5)c(O)c4c3C2=O)NC(=O)/C(C)=C\C=C\[C@H](C)[C@H](O)[C@@H](C)[C@@H](O)[C@@H](C)[C@H](OC(C)=O)[C@@H]1C` [rifampicin], the Km in data set [3] is 13 µM. Also, the half-inhibitory concentration (IC50) in data set [6] amounted to 0.99 ± 0.07 µM; in data set [1], 0.65 ± 0.02 µM.
For `C[C@]12CC[C@@H]3c4ccc(OS(=O)(=O)O)cc4CC[C@H]3[C@@H]1CCC2=O` [estrone-3-sulfate], the “increase in activity compared to vector control, OAT3” value in data set [10] was 3.8 fold. The “increase in activity compared to vector control, OATP2B1” value in [11] is 12.5 fold. In addition, the “increase in activity compared to vector control, OATP1B1” value in data set [12] was determined as 3.1 fold. The Km in data set [4] is 58 µM. For the same compound, the results for the IC50 in [6] (setting [15]) and in data set [1] (setting [16]) were 0.053 ± 0.005 µM and 20.1 ± 1 µM, respectively. Further, in data set [13], the “cellular accumulation relative to control, CHOOATP1B1” value is listed as 36.1 fold. Further, the “cellular accumulation relative to control, CHOOATP1B3” value in [7] is listed as 4.1 fold.
Turning to `C[C@H](CCC(=O)NCCS(=O)(=O)O)[C@H]1CC[C@H]2[C@@H]3[C@H](O)C[C@@H]4C[C@H](O)CC[C@]4(C)[C@H]3C[C@H](O)[C@]12C` [taurocholate], in data set [14], the “increase in transport compared to vector control, NTCP” value stood at 168.9 fold.

Values taken from publication PMC2919811 (Analytical biochemistry, 2010).
